Data as given in PubChem BioAssay AID2060895 (Molecular Pharmacology Branch, DTP, NCI, 2025).

Tested on: PDC 899932-113-R3-J6 complex spheroid viability
Assay: Anticancer human tumor 899932-113-R3-J6-PDC patient-derived melanoma cell line growth inhibition [RAS]
Details: for IC50: curve of first compound; for viability, T/C: stronger effect = lower value
Outline: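 Tumour cells grown as complex spheroids with HUVEC endothelial cells and mesenchymal stem cells, treated with RAS pathway inhibitor combinations. Each agent spans half-log steps from near clinical Cmax, or 10 microM where Cmax is unknown.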
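Throughout, for viability, T/C: spheroids exposed to agents for seven days before readout; 100% = DMSO vehicle control wells.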

CC(C)NCC(C(=O)N1CCN(c2ncnc3c2C(C)CC3O)CC1)c1ccc(Cl)cc1 (configuration not stated) + CCn1c(-c2cc(N3CCN(C)CC3)cnc2C(C)OC)c2c3cc(ccc31)-c1csc(n1)CC(NC(=O)C1CC1C)C(=O)N1CCCC(N1)C(=O)OCC(C)(C)C2
IC50 (second compound 0.000949 µM): 1.18 µM
IC50 (second compound 0.003 µM): < 0.0316 µM
IC50 (second compound 0.00949 µM): < 0.0316 µM
IC50 (second compound 0.03 µM): < 0.0316 µM
IC50 (second compound 0.0949 µM): < 0.0316 µM
IC50 (second compound 0.3 µM): < 0.0316 µM
viability, T/C (second compound 0.000949 µM, first compound 0.0316 µM): 80.5%
viability, T/C (second compound 0.000949 µM, first compound 0.1 µM): 75.4%
viability, T/C (second compound 0.000949 µM, first compound 0.316 µM): 61.7%
viability, T/C (second compound 0.000949 µM, first compound 1 µM): 53.7%
viability, T/C (second compound 0.000949 µM, first compound 3.16 µM): 37.1%
viability, T/C (second compound 0.000949 µM, first compound 10 µM): 14.6%
viability, T/C (second compound 0.003 µM, first compound 0.0316 µM): 34.5%
viability, T/C (second compound 0.003 µM, first compound 0.1 µM): 32.8%
viability, T/C (second compound 0.003 µM, first compound 0.316 µM): 26.5%
viability, T/C (second compound 0.003 µM, first compound 1 µM): 19.6%
viability, T/C (second compound 0.003 µM, first compound 3.16 µM): 10%
viability, T/C (second compound 0.003 µM, first compound 10 µM): 5.05%
viability, T/C (second compound 0.00949 µM, first compound 0.0316 µM): 4.77%
viability, T/C (second compound 0.00949 µM, first compound 0.1 µM): 3.31%
viability, T/C (second compound 0.00949 µM, first compound 0.316 µM): 3.85%
viability, T/C (second compound 0.00949 µM, first compound 1 µM): 2.39%
viability, T/C (second compound 0.00949 µM, first compound 3.16 µM): 1.83%
viability, T/C (second compound 0.00949 µM, first compound 10 µM): 1.29%
viability, T/C (second compound 0.03 µM, first compound 0.0316 µM): 3.08%
viability, T/C (second compound 0.03 µM, first compound 0.1 µM): 2.84%
viability, T/C (second compound 0.03 µM, first compound 0.316 µM): 2.3%
viability, T/C (second compound 0.03 µM, first compound 1 µM): 1.95%
viability, T/C (second compound 0.03 µM, first compound 3.16 µM): 0.99%
viability, T/C (second compound 0.03 µM, first compound 10 µM): 0.77%
viability, T/C (second compound 0.0949 µM, first compound 0.0316 µM): 2.64%
viability, T/C (second compound 0.0949 µM, first compound 0.1 µM): 2.19%
viability, T/C (second compound 0.0949 µM, first compound 0.316 µM): 2.43%
viability, T/C (second compound 0.0949 µM, first compound 1 µM): 1.31%
viability, T/C (second compound 0.0949 µM, first compound 3.16 µM): 1.13%
viability, T/C (second compound 0.0949 µM, first compound 10 µM): 0.37%
viability, T/C (second compound 0.3 µM, first compound 0.0316 µM): 1.88%
viability, T/C (second compound 0.3 µM, first compound 0.1 µM): 2.14%
viability, T/C (second compound 0.3 µM, first compound 0.316 µM): 2.14%
viability, T/C (second compound 0.3 µM, first compound 1 µM): 0.97%
viability, T/C (second compound 0.3 µM, first compound 3.16 µM): 0.62%
viability, T/C (second compound 0.3 µM, first compound 10 µM): 0.36%
